One data set relates to Haemonchus contortus. The data set can be described thus: Screening method to test activity against Haemonchus contortus L1 larvae (Method A). The note with it: 96 h, read-out: motility inhibition. Type of data set: cell-based. The method, then: Screening method to test activity of compounds against Haemonchus contortus.
Twenty L1 Haemonchus contortus larvae were added to wells of a microtitre plate containing a nutrient medium and the test compound in DMSO. An analysis was conducted at 4 days to determine the extent of development of the larvae. Larvae exposed to DMSO alone served as controls. Compounds 3, 6, 12, 15, 43, 44, 45, 46, 47, 48, 49, & 50 gave at least 90% motility inhibition at a test concentration of less than or equal to <1 μM when assessed at the 4 day time point.

Data set [1] in a line: Permeability in the CACO-2/TC7 in vitro model (Method C). Type of data set: in vitro ADME. The note with it: human, apical to basolateral, pH gradient 6.5/7.4 and BSA gradient 0.5%/5%, 20 μM compound. From the text:
Permeability of Compounds.
Permeability of a compound across the epithelium cells along the gastrointestinal tract is an important limiting factor for the oral absorption and systemic availability of the compound. An in vitro model utilizing Caco-2/TC7 cells is employed to assess the permeability characteristics of new chemical entities (NCEs). For orally administered compounds, absorption depends on the intrinsic permeability across the intestinal epithelium and whether the active agent is a substrate or inhibitor of uptake or efflux transporters.
The permeability studies were performed under standard conditions in the apical to basolateral (A→B) direction with a pH gradient and a BSA gradient (standard apical medium (0.5% BSA at pH 6.5)/standard basal medium (5% BSA at pH 7.4)); conditions that most closely reflect the conditions in the in vivo situation. Samples were deproteinized by the addition of 400 μl acetonitrile to 200 μl sample, followed by a 20-minute centrifugation at 1730 g. […] Analytical conditions: Supernatants recovered following centrifugation were analysed by LC/MS/MS using a reverse phase column and the mobile phases delivered at 0.3 ml/minute in a gradient: water (A) and acetonitrile (B) (each with 0.1% formic acid). […]

Data set [2] relates to ivermectin-resistant strains of Ostertagia circumcincta. The data set can be described thus: Efficacy against ivermectin-resistant endoparasites in sheep (FIG. 2). Type of data set: in vivo. The note with it: 0.2 mg/kg orally.
In data set [3] the test system is ivermectin-resistant strains of Trichostrongylus columbriformis. The data set is described as above. Type of data set: in vivo. The note with it: 0.2 mg/kg orally.
Data set [4] has as its system ivermectin-resistant strains of Haemonchus contortus. The data set is described as above. Type of data set: in vivo. The note with it: 0.2 mg/kg orally.

In patent US10463661B2, “Anthelmintic compounds” (MERIAL INC., priority 2014, dated 2019) one finds inhibition, Papp A→B and efficacy data, which are given here for 3 compounds.

For orientation: inhibition means how much of the control response was suppressed. As a reminder, the Papp A→B is how fast a substance crosses the layer from the apical side. On to `N#Cc1ccc(N2CCC(OCC(=O)N3CCN(c4nc5cc(C(F)(F)F)ccc5s4)CC3)CC2)cc1C(F)(F)F` [Compound 3, 4-[4-[2-oxo-2-[4-[5-(trifluoromethyl)-1,3-benzothiazol-2-yl]piperazin-1-yl]ethoxy]-1-piperidyl]-2-(trifluoromethyl)benzonitrile], for which the inhibition at 1 µM in the data set with Haemonchus contortus is not below 90%. The compound also gave a Papp A→B at 20 μM in data set [1] of 2.8 ×10⁻⁶ cm/s.
As for ivermectin, the results for the efficacy entry in data set [2], in data set [3] and in data set [4] were “less than 30%”, “less than 60%” and “almost completely inactive”, respectively.
`N#Cc1ccc(N2CC(OCC(=O)N3CCN(c4nc5cc(C(F)(F)F)ccc5s4)CC3)C2)cc1C(F)(F)F` [Compound 6, 4-[3-[2-oxo-2-[4-[5-(trifluoromethyl)-1,3-benzothiazol-2-yl]piperazin-1-yl]ethoxy]azetidin-1-yl]-2-(trifluoromethyl)benzonitrile]: in the data set on Haemonchus contortus, the inhibition at 1 µM is not below 90%.
